The values below come from US12036229B2, “Use of phosphorylated heptose compounds” (NATIONAL RESEARCH COUNCIL OF CANADA, priority 2017, dated 2024).

For this experiment, the system named is CT26 cells (colon carcinoma from BALB/c mice). Description: CT26 tumour model in BALB/c mice. The format is in vivo. The settings on record: intraperitoneal; HMP 200 μg per day D10, D11, D12; LPS 1x at 3 mg/kg; 11 day period, vs PBS; FIG. 14c.

For the substance lipopolysaccharide [LPS], the “change in tumour volume relative to day 10 (rate of tumour growth)” value was “significantly reduced the rate of tumour growth”.
